Reference: article PMC8329730 (Journal of medicinal chemistry, 2019)
Where a name gives a salt, the structure may show the parent alone.

Experiments:
[1] = mouse PK, blood and brain, 10 mg/kg IP; assay type: in vivo; conditions: female, NMRI, whole blood
[2] = toxicity observed on dosing mice; assay type: in vivo, mouse; conditions: 50 mg/kg QD
[3] = LogD; assay type: physicochemical; conditions: pH 7.4
[4] = human liver microsome intrinsic clearance; conditions: human liver microsomes

With `Cn1nc2c3c(cc(-c4ccnc(N)n4)cc31)Oc1ccccc1N2` [compound 18, 4-(2-Methyl-2,11-dihydrobenzo[2,3][1,4]oxazepino[5,6,7-cd]indazol-4-yl)pyrimidin-2-amine] the Tmax [1] was 15 to 30 min, the “animals dying within 30 minutes of treatment” value [2] was 50% and the “animals experiencing inflammation after dosing” value ([2]; resolved with time) was 50%.

In the case of `c1ccc2c(c1)Nc1n[nH]c3cccc(c13)O2` [9a], the logD [3] is reported as 4.1.

Molecule `CCOc1cc(-c2ccnc(N)n2)cc2[nH]nc(N)c12` [57a, 6-(2-Aminopyrimidin-4-yl)-4-ethoxy-1H-indazol-3-amine formate] has a Tmax [1] of 15 to 30 min.

In the case of “1-((6aR,9aR)-4-(2-Aminopyrimidin-4-yl)-6a,7,8,9,9a,10-hexahydro-2H-cyclopenta[2,3][1,4]oxazepino[5,6,7-cd]indazol-2-yl)ethan-1-one [compound 49]”, the “HLM Clint” value [4] is reported as “highly cleared”.
